In paper PMC11002996 (Journal of medicinal chemistry, 2023):
Each block holds one molecule with its values, some of them ahead of it.

Experiments:
NLRC4 inflammasome = NLRC4 inflammasome (Mus musculus, UniProt Q3UP24); assay: Inhibition of NLRC4 inflammasome; type: cell-based; conditions: LPS 1 μg/mL, flagellin 1 μg/mL 6 h; 1 at 3 and 10 μM, 8 at 10 μM
AIM2 inflammasome = biological target: T1, AIM2 inflammasome (Mus musculus, UniProt Q91VJ1); assay: Inhibition of AIM2 inflammasome; type: cell-based; conditions: LPS 1 μg/mL, poly(dA:dT) 4 μg/mL 4 h; 1 at 3 and 10 μM, 8 at 10 μM
T1 sequence (Q91VJ1 1-354): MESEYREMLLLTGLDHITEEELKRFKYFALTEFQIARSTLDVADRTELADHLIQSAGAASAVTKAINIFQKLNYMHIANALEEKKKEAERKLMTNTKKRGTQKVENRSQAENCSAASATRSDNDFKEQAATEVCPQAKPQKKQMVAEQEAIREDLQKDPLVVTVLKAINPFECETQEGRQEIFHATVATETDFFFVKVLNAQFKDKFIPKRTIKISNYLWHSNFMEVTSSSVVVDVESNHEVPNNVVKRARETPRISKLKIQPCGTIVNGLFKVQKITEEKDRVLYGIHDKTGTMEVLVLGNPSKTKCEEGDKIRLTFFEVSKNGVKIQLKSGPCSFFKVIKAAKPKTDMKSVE

NLRP3 inflammasome [1] = biological target: NLRP3 inflammasome (Mus musculus, UniProt Q8R4B8); conditions: IL-1β release, LPS/ATP
priming by LPS (TNF-α) = assay: LPS priming step, TNF-α in J774A.1 culture media by ELISA; type: cell-based, mouse; conditions: concentrations ≤ 3 μM
AD animal models = conditions: cited from earlier work
[2] = earlier work of the authors; cited from earlier work
[3] = biological target: human recombinant NLRP3 protein; conditions: cited from earlier work
NLRP3 inflammasome [4] = conditions: read-out: IC50 (potency as NLRP3 inhibitor); cited from earlier work

NLRP3 inflammasome (Mus musculus, UniProt Q8R4B8), sequence (Q8R4B8 whole entry): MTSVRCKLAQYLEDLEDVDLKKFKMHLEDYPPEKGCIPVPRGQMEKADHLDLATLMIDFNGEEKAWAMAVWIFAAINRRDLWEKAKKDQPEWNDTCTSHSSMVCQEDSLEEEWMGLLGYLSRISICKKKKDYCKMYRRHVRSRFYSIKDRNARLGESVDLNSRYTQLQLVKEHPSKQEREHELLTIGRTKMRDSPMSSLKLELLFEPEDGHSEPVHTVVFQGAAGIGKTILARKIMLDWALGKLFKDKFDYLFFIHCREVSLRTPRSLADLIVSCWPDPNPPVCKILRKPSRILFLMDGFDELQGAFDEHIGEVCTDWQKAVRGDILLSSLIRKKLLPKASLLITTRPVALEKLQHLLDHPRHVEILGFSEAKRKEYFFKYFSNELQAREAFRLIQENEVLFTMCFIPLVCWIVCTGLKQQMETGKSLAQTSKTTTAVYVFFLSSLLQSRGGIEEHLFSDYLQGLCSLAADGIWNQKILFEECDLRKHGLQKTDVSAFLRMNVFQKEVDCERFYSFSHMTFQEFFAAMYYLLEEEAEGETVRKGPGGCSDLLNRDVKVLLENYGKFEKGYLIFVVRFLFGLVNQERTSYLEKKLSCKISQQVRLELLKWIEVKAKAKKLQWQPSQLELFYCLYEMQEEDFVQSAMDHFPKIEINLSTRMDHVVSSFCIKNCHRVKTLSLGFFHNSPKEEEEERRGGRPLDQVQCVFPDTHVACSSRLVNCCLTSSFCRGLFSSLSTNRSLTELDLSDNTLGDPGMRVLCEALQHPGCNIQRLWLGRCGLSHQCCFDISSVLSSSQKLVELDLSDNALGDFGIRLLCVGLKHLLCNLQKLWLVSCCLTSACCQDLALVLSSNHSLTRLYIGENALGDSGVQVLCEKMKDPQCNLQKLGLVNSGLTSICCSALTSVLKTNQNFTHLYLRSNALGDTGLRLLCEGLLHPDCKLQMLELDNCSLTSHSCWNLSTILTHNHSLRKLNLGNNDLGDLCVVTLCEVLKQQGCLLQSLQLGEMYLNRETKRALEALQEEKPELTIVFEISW
NLRC4 inflammasome, sequence (Q3UP24 whole entry): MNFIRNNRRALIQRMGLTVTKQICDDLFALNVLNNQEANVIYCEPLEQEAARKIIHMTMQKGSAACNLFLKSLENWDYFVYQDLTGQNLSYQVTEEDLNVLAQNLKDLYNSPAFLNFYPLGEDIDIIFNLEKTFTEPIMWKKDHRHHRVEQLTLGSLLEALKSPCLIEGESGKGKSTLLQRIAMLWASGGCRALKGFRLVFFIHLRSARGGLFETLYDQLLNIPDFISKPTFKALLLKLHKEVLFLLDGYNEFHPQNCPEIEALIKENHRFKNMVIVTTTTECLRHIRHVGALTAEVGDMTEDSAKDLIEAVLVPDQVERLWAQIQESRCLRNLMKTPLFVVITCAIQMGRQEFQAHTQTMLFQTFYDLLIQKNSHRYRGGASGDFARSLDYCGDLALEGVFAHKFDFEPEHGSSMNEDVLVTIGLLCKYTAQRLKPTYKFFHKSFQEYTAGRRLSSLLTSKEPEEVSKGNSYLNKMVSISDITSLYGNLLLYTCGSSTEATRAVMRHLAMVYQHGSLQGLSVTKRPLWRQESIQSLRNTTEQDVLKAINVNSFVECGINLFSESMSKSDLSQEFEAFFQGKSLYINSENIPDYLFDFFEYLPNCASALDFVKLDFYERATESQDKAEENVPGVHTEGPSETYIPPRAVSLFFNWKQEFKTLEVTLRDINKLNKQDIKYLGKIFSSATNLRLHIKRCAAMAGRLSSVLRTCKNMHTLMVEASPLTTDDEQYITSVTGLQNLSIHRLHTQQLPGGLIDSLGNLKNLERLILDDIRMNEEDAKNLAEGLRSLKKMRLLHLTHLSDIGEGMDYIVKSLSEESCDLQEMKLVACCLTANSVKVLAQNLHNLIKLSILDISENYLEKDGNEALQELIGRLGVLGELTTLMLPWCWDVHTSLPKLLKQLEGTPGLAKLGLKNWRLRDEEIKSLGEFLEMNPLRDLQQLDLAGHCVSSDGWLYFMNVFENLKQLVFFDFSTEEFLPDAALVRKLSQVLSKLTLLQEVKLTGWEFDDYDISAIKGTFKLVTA

SMILES: COC(=O)c1ccc(-c2cn(Cc3cc(Cl)ccc3OC)nn2)cc1 [Compound 8, Methyl 4-(1-(5-chloro-2-methoxybenzyl)-1H-1,2,3-triazol-4-yl)benzoate]
inhibition of the NLRC4 inflammasome (NLRC4 inflammasome): did not show inhibitory effects
inhibition of the AIM2 inflammasome (AIM2 inflammasome): did not show inhibitory effects

SMILES: COC(=O)c1cccc(-c2cn(Cc3cc(Cl)ccc3OC)nn2)c1 [Compound 11, Methyl 3-(1-(5-chloro-2-methoxybenzyl)-1H-1,2,3-triazol-4-yl)benzoate]
inhibitory potency compared to 8 (NLRP3 inflammasome [1]): decrease of inhibitory potency

SMILES: COC(=O)c1ccc(-c2cn(Cc3ccccc3OC)nn2)cc1 [Compound 25, Methyl 4-(1-(2-methoxybenzyl)-1H-1,2,3-triazol-4-yl)benzoate]
inhibitory potency compared to 8 (NLRP3 inflammasome [1]): ~3–7-fold decrease or complete loss of potency

SMILES: CCCOc1ccc(Cl)cc1Cn1cc(-c2ccc(S(N)(=O)=O)cc2)nn1 [Compound 2, 4-(1-(5-chloro-2-propoxybenzyl)-1H-1,2,3-triazol-4-yl)benzenesulfonamide]
inhibitory potency compared to 1 (NLRP3 inflammasome [1]): comparable potency

SMILES: COc1ccc(Cl)cc1Cn1cc(-c2ccc(C(=O)O)cc2)nn1 [Compound 12, 4-(1-(5-chloro-2-methoxybenzyl)-1H-1,2,3-triazol-4-yl)benzoic acid]
inhibitory potency compared to 8 (NLRP3 inflammasome [1]): significantly less potent

SMILES: CCCOc1ccc(Cl)cc1Cn1cc(-c2ccccc2)nn1 [Compound 1, 1-(5-chloro-2-propoxybenzyl)-4-phenyl-1H-1,2,3-triazole]
inhibition of the NLRC4 inflammasome (NLRC4 inflammasome): only observed for the NLRC4 and AIM2 inflammasomes at higher concentrations
inhibition of the AIM2 inflammasome (AIM2 inflammasome): only observed for the NLRC4 and AIM2 inflammasomes at higher concentrations
interference with the priming by LPS (priming by LPS (TNF-α)): did not show interference

SMILES: CNS(=O)(=O)c1ccc(CCNC(=O)c2cc(Cl)ccc2OC)cc1 [JC124]
in vivo efficacy (AD animal models): in vivo efficacy
metabolism / metabolic stability in mouse liver microsomes [2]: relatively better metabolic stability

SMILES: COC(=O)c1ccc(-c2cn(Cc3ccccc3)nn2)cc1 [Compound 24, Methyl 4-(1-benzyl-1H-1,2,3-triazol-4-yl)benzoate]
inhibitory potency compared to 8 (NLRP3 inflammasome [1]): ~3–7-fold decrease or complete loss of potency

SMILES: C#CCNS(=O)(=O)c1ccc(CCN(Cc2cc(Cl)ccc2OCCC)C(=O)Cc2ccsc2)cc1 [YQ128]
Kd [3]: 117 nM
metabolism / metabolic stability in mouse liver microsomes [2]: rapid metabolism
IC50 (NLRP3 inflammasome [4]): 300 ± 10 nM

SMILES: COC(=O)c1ccc(-c2cn(Cc3cccc(Cl)c3)nn2)cc1 [Compound 26, Methyl 4-(1-(3-chlorobenzyl)-1H-1,2,3-triazol-4-yl)benzoate]
inhibitory potency compared to 8 (NLRP3 inflammasome [1]): ~3–7-fold decrease or complete loss of potency

SMILES: CCCOc1ccc(Cl)cc1Cn1cc(-c2ccc(C(=O)O)cc2)nn1 [Compound 7, 4-(1-(5-chloro-2-propoxybenzyl)-1H-1,2,3-triazol-4-yl)benzoic acid]
lower potency compared to 6 (NLRP3 inflammasome [1]): ~ 10 fold

Other lines, results leading:

inhibitory potency compared to 8 (NLRP3 inflammasome [1]): comparable potency
SMILES: COC(=O)c1ccc(-c2cn(Cc3cc(Cl)cc(OC)c3)nn2)cc1 [Compound 28, Methyl 4-(1-(3-chloro-5-methoxybenzyl)-1H-1,2,3-triazol-4-yl)benzoate]

decrease in inhibitory potency compared to 8 (NLRP3 inflammasome [1]): 2–3 fold
SMILES: COC(=O)c1ccc(-c2cn(Cc3cc(F)ccc3OC)nn2)cc1 [Compound 32, Methyl 4-(1-(5-fluoro-2-methoxybenzyl)-1H-1,2,3-triazol-4-yl)benzoate]

inhibitory potency compared to 8 (NLRP3 inflammasome [1]): comparable potency
SMILES: COC(=O)c1ccc(-c2cn(Cc3cc(C(F)(F)F)ccc3OC)nn2)cc1 [Compound 34, Methyl 4-(1-(2-methoxy-5-(trifluoromethyl)benzyl)-1H-1,2,3-triazol-4-yl)benzoate]

decrease in inhibitory potency compared to 8 (NLRP3 inflammasome [1]): 2–3 fold
SMILES: COC(=O)c1ccc(-c2cn(Cc3cc(Br)ccc3OC)nn2)cc1 [Compound 33, Methyl 4-(1-(5-bromo-2-methoxybenzyl)-1H-1,2,3-triazol-4-yl)benzoate]

decrease in inhibitory potency compared to 8 (NLRP3 inflammasome [1]): 3–4 fold
SMILES: COC(=O)c1ccc(-c2cn(Cc3cc(Cl)ccc3OC)nn2)c(F)c1 [Compound 16, Methyl 4-(1-(5-chloro-2-methoxybenzyl)-1H-1,2,3-triazol-4-yl)-3-fluorobenzoate]

inhibitory potency compared to 8 (NLRP3 inflammasome [1]): decreased inhibitory potency
SMILES: COc1ccc(Cl)cc1Cn1cc(-c2ccc(C(=O)N3CCC3)cc2)nn1 [Compound 14, Azetidin-1-yl(4-(1-(5-chloro-2-methoxybenzyl)-1H-1,2,3-triazol-4-yl)phenyl)methanone]

decrease in inhibitory potency compared to 8 (NLRP3 inflammasome [1]): ~ 5 fold
SMILES: COC(=O)c1ccc(-c2cn(Cc3cc(Cl)ccc3O)nn2)cc1 [Compound 27, Methyl 4-(1-(5-chloro-2-hydroxybenzyl)-1H-1,2,3-triazol-4-yl)benzoate]

decrease in inhibitory potency compared to 8 (NLRP3 inflammasome [1]): 3–4 fold
SMILES: COC(=O)c1ccc(-c2cn(Cc3cc(Cl)ccc3OC)nn2)c(C)c1 [Compound 15, Methyl 4-(1-(5-chloro-2-methoxybenzyl)-1H-1,2,3-triazol-4-yl)-3-methylbenzoate]

inhibitory potency compared to 8 (NLRP3 inflammasome [1]): decreased inhibitory potency
SMILES: CNC(=O)c1ccc(-c2cn(Cc3cc(Cl)ccc3OC)nn2)cc1 [Compound 13, 4-(1-(5-chloro-2-methoxybenzyl)-1H-1,2,3-triazol-4-yl)-N-methylbenzamide]
